Measurements taken from ChEMBL document CHEMBL5523680, “Small molecule modulators of cystic fibrosis transmembrane conductance regulator (CFTR): Structure, classification, and mechanisms” (Eur J Med Chem, 2024).

Assays:
[1] = molecular target: T1, Cystic fibrosis transmembrane conductance regulator (Homo sapiens, UniProt P13569, F508DEL); experiment: Activation of CFTR F508del mutant (unknown origin)
[2] = molecular target: Cystic fibrosis transmembrane conductance regulator (Homo sapiens, UniProt P13569, G551D); experiment: Potentiation of CFTR G551D mutant (unknown origin) expressed in FRT cells; type: cell-based
[3] = molecular target: T1, Cystic fibrosis transmembrane conductance regulator; experiment: Potentiation of CFTR F508del mutant (unknown origin) expressed in NIH3T3 cells; type: cell-based
[4] = molecular target: T1, Cystic fibrosis transmembrane conductance regulator; experiment: Corrector activity at […] CFTR F508del mutant (unknown origin) expressed in BHK cells assessed as increase in chloride secretion […]; type: cell-based
[5] = molecular target: T2, Cystic fibrosis transmembrane conductance regulator (Homo sapiens, UniProt P13569, N1303K); experiment: Potentiation of CFTR N1303K mutant (unknown origin) expressed in FRT cells assessed as increase in CFTR mutant activity; type: cell-based
[6] = molecular target: T2, Cystic fibrosis transmembrane conductance regulator; experiment: Potentiation of CFTR N1303K mutant (unknown origin) transfected in […] FRT cells in presence of forskolin/VX-770; type: cell-based
[7] = molecular target: Cystic fibrosis transmembrane conductance regulator (Homo sapiens, UniProt P13569, W1282X); experiment: Potentiation of CFTR W1282X mutant (unknown origin) transfected in […] FRT cells in presence of forskolin/VX-770; type: cell-based
[8] = test system: Cystic fibrosis transmembrane conductance regulator (Homo sapiens), P13569 [G551D]; experiment: Potentiation of CFTR G551D mutant (unknown origin) expressed in FRT cells assessed as increase in chloride current in presence of VX-770 relative to control; type: cell-based; conditions: filed as activator
[9] = molecular target: T1, Cystic fibrosis transmembrane conductance regulator; experiment: Potentiation of CFTR F508del mutant (unknown origin) in FRT cells assessed as rescue of CFTR mutant incubated for 24 hrs in presence of VX-770; type: cell-based

T1 sequence (P13569 as listed by the source): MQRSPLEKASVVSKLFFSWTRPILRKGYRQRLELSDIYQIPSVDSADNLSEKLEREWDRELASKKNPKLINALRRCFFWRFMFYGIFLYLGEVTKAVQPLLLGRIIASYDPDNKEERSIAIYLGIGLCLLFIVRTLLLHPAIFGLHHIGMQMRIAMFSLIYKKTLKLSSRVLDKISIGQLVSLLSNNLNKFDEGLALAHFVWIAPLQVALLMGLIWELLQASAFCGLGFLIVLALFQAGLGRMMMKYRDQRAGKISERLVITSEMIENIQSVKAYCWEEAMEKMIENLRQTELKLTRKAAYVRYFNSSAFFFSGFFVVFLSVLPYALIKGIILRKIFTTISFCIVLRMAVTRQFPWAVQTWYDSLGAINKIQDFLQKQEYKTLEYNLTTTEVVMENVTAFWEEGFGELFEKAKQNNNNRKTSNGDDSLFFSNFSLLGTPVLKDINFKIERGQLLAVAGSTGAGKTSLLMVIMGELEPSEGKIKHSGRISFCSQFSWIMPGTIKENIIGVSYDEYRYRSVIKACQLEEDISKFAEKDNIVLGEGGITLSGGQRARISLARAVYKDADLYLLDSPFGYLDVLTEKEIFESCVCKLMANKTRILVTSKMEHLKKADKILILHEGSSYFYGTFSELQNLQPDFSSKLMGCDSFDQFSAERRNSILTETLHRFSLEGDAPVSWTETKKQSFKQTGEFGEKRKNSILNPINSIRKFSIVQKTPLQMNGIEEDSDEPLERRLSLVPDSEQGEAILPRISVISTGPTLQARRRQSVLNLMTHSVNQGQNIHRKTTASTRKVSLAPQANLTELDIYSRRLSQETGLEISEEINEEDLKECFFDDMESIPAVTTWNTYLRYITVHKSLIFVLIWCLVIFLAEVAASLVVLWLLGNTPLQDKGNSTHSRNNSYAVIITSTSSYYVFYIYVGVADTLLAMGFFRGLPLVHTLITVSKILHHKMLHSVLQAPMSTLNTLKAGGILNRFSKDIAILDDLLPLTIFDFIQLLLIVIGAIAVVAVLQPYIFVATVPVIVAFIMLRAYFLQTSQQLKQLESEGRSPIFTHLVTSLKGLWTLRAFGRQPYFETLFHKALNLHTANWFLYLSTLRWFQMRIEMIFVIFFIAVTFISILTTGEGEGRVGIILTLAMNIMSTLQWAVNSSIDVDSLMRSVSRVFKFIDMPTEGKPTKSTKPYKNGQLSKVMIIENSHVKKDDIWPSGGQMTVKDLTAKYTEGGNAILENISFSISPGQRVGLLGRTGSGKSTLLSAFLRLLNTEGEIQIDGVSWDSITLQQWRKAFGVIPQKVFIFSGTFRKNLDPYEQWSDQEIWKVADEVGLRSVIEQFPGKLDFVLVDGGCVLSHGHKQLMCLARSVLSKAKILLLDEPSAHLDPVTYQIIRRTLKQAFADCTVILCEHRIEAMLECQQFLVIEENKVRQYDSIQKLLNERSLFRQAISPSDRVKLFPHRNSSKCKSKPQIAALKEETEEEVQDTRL
T2 sequence (P13569 whole entry N1303K): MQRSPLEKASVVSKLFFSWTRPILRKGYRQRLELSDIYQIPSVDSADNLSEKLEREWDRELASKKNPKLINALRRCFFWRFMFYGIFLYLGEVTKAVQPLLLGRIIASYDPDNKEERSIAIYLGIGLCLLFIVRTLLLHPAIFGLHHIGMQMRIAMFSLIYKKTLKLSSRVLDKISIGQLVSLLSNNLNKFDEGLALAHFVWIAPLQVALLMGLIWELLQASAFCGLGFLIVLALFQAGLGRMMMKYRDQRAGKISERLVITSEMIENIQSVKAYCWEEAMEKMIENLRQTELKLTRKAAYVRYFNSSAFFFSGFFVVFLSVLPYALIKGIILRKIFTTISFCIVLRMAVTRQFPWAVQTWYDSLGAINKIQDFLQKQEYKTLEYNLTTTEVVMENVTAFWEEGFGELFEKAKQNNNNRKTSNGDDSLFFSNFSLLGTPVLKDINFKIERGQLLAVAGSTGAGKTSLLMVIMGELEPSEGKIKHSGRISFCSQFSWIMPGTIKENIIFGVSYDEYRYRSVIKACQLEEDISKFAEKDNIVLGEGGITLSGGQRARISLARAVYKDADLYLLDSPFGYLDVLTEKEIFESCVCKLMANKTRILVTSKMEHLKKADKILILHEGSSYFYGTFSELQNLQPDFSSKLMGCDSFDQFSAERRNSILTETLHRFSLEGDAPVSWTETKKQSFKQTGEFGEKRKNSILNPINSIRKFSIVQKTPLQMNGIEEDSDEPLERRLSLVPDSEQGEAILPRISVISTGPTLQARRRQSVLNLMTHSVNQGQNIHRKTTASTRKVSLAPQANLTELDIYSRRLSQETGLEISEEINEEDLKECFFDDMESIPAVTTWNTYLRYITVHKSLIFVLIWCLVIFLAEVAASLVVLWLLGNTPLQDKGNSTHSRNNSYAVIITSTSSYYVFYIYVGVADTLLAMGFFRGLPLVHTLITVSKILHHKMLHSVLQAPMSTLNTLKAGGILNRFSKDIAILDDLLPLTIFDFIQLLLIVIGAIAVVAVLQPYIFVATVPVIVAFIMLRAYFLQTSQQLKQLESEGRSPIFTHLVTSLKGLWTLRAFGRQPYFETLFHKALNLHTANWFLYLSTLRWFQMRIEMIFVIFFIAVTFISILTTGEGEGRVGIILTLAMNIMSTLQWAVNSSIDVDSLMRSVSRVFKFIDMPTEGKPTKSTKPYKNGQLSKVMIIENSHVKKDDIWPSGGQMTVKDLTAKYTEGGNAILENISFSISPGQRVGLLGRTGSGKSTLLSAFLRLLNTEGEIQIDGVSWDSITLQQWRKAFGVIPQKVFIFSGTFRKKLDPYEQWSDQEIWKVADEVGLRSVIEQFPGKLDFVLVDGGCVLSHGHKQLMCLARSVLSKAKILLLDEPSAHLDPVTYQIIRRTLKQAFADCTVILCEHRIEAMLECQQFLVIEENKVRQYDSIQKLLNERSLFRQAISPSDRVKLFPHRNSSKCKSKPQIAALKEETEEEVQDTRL
Chain of Cystic fibrosis transmembrane conductance regulator (Homo sapiens, UniProt P13569, G551D) (P13569 whole entry G551D): as the sequence (P13569 whole entry N1303K) above, with G551D, K1303N counted along it
Chain of Cystic fibrosis transmembrane conductance regulator (Homo sapiens), P13569 [G551D] (P13569 whole entry G551D): as the sequence (P13569 whole entry N1303K) above, with G551D, K1303N counted along it

In the case of OCc1cccc(N2C=CN(c3ccccc3)N2)c1, the EC50 [1] is reported as 1900 nM.

Work on O=C(Nc1ccc2cc[nH]c2c1)c1c[nH]c2ccccc2c1=O yielded an EC50 [2] of 100 nM.

O=C(Nc1ncc(Cc2ccccc2Cl)s1)C(c1ccccc1)c1ccccc1 was tested, and the EC50 [3] was 7000 nM and the EC50 [4] was 81 nM.

OC(C1=CNNN1c1ccc(Br)cc1)c1ccccc1Br (stereo unspecified) showed an EC50 [1] of 4200 nM.

In the case of Cc1ccc(S(=O)(=O)Nc2nc3ccccc3nc2C2CCOCC2)cc1, the EC50 [1] is reported as 930 nM.

For O=c1cc(-c2ccc(O)cc2)oc2cc(O)cc(O)c12 [APIGENIN], the EC50 [5] was 10800 nM.

Work on O=P(O)(CCP(=O)(O)c1ccccc1)c1ccccc1 yielded an EC50 [1] of 1000 nM.

In the case of OC(C1=NC(c2ccc(Br)cc2)NN1)c1ccccc1Br (stereo unspecified), the EC50 [1] is reported as 3000 nM.

Work on COc1ccc(S(=O)(=O)N2CCN(C(C)c3nc(OC4CCCCC4)c4ccccc4n3)CC2)cc1 (stereo unspecified) yielded an EC50 [3] of 3300 nM.

CCCCN1CC(S(=O)(=O)Nc2ccc(CC)cc2)c2cccnc21 (stereo unspecified) showed an EC50 [6] of 1900 nM, an EC50 [7] of 1000 nM and an Activity [8] of 65%.

With CC(C)(CO)c1cc2cc(NC(=O)C3(c4ccc5c(c4)OC(F)(F)O5)CC3)c(F)cc2n1C[C@@H](O)CO [TEZACAFTOR] the EC50 [3] was 1100 nM.

OC(C1=NC(c2ccc(Br)cc2)NN1)c1ccc(Br)cc1 (stereo unspecified) was tested, and the EC50 [1] was 2700 nM.

For Cc1ncccc1CNC(=O)c1ccc2c(c1)CC[C@@H]1C[C@@](O)(CCC(F)(F)F)CC[C@@]21Cc1ccccc1, the EC50 [9] was 400 nM.
